From patent US8685992B2, “Histone deacetylase inhibitors based simultaneously on trisubstituted 1H-pyrroles and aromatic and heteroaromatic spacers” (Universidad del País Vasco, priority 2009, dated 2014)

Key:
SW480 = assay: Cancer cell growth inhibition, SW480; format: cell-based, human; details: SW480, Colorectal Cancer, 72 h treatment
Procedure: (§1) Cell culture-based assays were used to evaluate the ability of compounds of the invention to inhibit cancer cell growth inhibition.
(§2) Cells were obtained from the American Type Culture Collection (ATCC). Cells were cultured at 37° C. with 5% CO2 in the appropriate growth medium (see table below), and harvested respectively during the logarithmic growth period and counted with hemocytometer. The cell viability was over 98% by trypan blue exclusion. Cell concentrations were adjusted between 5×10^4 and 2×10^5 cells/ml with respective medium.
(§3) Stock solutions of test compounds and positive drugs Doxorubicin (Zhejiang, Haizheng, China), Paclitaxel (Beijing, Xiehe, China), Vincristin (Shenzhen Wanle, China), 5-FU (Tianjin jinyaoanjisuan, China), Irinotecan (Jiangsu Hengrui, China) and Cisplatin Nanjing zhiyao, China) were prepared in dimethyl sulphoxide (DMSO) or PBS at 20 mM.
(§4) All treatments were performed in triplicate. 10 μl drug solution was added to each well and incubated for 72 hours. At the end of the incubation, 20 μl of the freshly prepared MTS/PMS mixture solution was added to each well and incubated for 4 hours at 37° C. in a humidified, 5% CO2 atmosphere. Absorbance was read at 490 nm using SpectraMAX Plus microplate spectrophotometer. […] In order to calculate IC50, a dose-responsive curve was fitted using nonlinear regression model with a sigmoidal dose response.

A549 = assay: Cancer cell growth inhibition, A549; format: cell-based, human; details: A549, Lung Cancer, 72 h treatment
Procedure: as §1, §2, §3, §4

MDA-MB-231 = assay: Cancer cell growth inhibition, MDA-MB-231; format: cell-based, human; details: MDA-MB-231, Breast Cancer, 72 h treatment
Procedure: as §1, §2, §3, §4

K562 = assay: Cancer cell growth inhibition, K562; format: cell-based, human; details: K562, CML, 72 h treatment
Procedure: as §1
Cells were obtained from the American Type Culture Collection (ATCC). Cells were cultured at 37° C. with 5% CO2 in the appropriate growth medium (see table below), and harvested respectively during the logarithmic growth period and counted with hemocytometer. […] Cell concentrations were adjusted between 5×10^4 and 2×10^5 cells/ml with respective medium.
as §3, §4

MCG803 = assay: Cancer cell growth inhibition, MCG803; format: cell-based, human; details: MCG803, Gastric Cancer, 72 h treatment
Procedure: as §1, §2, §3, §4

KB = assay: Cancer cell growth inhibition, KB; format: cell-based, human; details: Oral Cancer, 72 h treatment
Procedure: as §1, §2, §3, §4

CNE2 = assay: Cancer cell growth inhibition, CNE2; format: cell-based, human; details: CNE2, Nasopharyngeal Cancer, 72 h treatment
Procedure: as §1, §2, §3, §4

LoVo = assay: Cancer cell growth inhibition, LoVo; format: cell-based, human; details: Colorectal Cancer, 72 h treatment
Procedure: as §1, §2, §3, §4

A375 = assay: Cancer cell growth inhibition, A375; format: cell-based, human; details: A375, Melanoma, 72 h treatment
Procedure: as §1, §2, §3, §4

OVCAR3 = assay: Cancer cell growth inhibition, OVCAR3; format: cell-based, human; details: OVCAR3, Ovarian Cancer, 72 h treatment
Procedure: as §1, §2, §3, §4

PC-3 = assay: Cancer cell growth inhibition, PC-3; format: cell-based, human; details: PC-3, Prostate Cancer, 72 h treatment
Procedure: as §1, §2, §3, §4

Hep3B = assay: Cancer cell growth inhibition, Hep3B; format: cell-based, human; details: Liver Cancer, 72 h treatment
Procedure: as §1, §2, §3, §4

RPMI-8226 = assay: Cancer cell growth inhibition, RPMI-8226; format: cell-based, human; details: RPMI-8226, Orthotopic Multiple Myeloma, 72 h treatment
Procedure: as §1, §2, §3, §4

SK-BR-3 = assay: Cancer cell growth inhibition, SK-BR-3; format: cell-based, human; details: SK-BR-3, Breast Cancer, 72 h treatment
Procedure: as §1, §2, §3, §4

DLD-1 = assay: Cancer cell growth inhibition, DLD-1; format: cell-based, human; details: DLD-1, Colorectal Cancer, 72 h treatment
Procedure: as §1, §2, §3, §4

Bx-PC-3 = assay: Cancer cell growth inhibition, Bx-PC-3; format: cell-based, human; details: Bx-PC-3, Pancreatic Cancer, 72 h treatment
Procedure: as §1, §2, §3, §4

DU145 = assay: Cancer cell growth inhibition, DU145; format: cell-based, human; details: DU145, Prostate Cancer, 72 h treatment
Procedure: as §1, §2, §3, §4

NCI-H460 = assay: Cancer cell growth inhibition, NCI-H460; format: cell-based, human; details: NCI-H460, Lung Cancer, 72 h treatment
Procedure: as §1, §2, §3, §4

Calu-6 = assay: Cancer cell growth inhibition, Calu-6; format: cell-based, human; details: Calu-6, Lung Cancer, 72 h treatment
Procedure: as §1, §2, §3, §4

SK-MEL-5 = assay: Cancer cell growth inhibition, SK-MEL-5; format: cell-based, human; details: SK-MEL-5, Melanoma, 72 h treatment
Procedure: as §1, §2, §3, §4

PANC-1 = assay: Cancer cell growth inhibition, PANC-1; format: cell-based, human; details: PANC-1, Pancreatic Cancer, 72 h treatment
Procedure: as §1, §2, §3, §4

BGC823 = assay: Cancer cell growth inhibition, BGC823; format: cell-based, human; details: BGC823, Gastric Cancer, 72 h treatment
Procedure: as §1, §2, §3, §4

MCF-7 = assay: Cancer cell growth inhibition, MCF-7; format: cell-based, human; details: MCF-7, Breast Cancer, 72 h treatment
Procedure: as §1, §2, §3, §4

U87MG = assay: Cancer cell growth inhibition, U87MG; format: cell-based, human; details: Glioblastoma, 72 h treatment
Procedure: as §1, §2, §3, §4

NCI-N87 = assay: Cancer cell growth inhibition, NCI-N87; format: cell-based, human; details: NCI-N87, Gastric Cancer, 72 h treatment
Procedure: as §1, §2, §3, §4

786-O = assay: Cancer cell growth inhibition, 786-O; format: cell-based, human; details: Kindney Cancer, 72 h treatment
Procedure: as §1, §2, §3, §4

LNCaP = assay: Cancer cell growth inhibition, LNCaP; format: cell-based, human; details: Prostate Cancer, 72 h treatment
Procedure: as §1, §2, §3, §4

HT-29 = assay: Cancer cell growth inhibition, HT-29; format: cell-based, human; details: HT-29, Colorectal Cancer, 72 h treatment
Procedure: as §1, §2, §3, §4

SK-MES-1 = assay: Cancer cell growth inhibition, SK-MES-1; format: cell-based, human; details: SK-MES-1, Lung Cancer, 72 h treatment
Procedure: as §1, §2, §3, §4

SK-OV-3 = assay: Cancer cell growth inhibition, SK-OV-3; format: cell-based, human; details: SK-OV-3, Ovarian Cancer, 72 h treatment
Procedure: as §1, §2, §3, §4

NCI-H226 = assay: Cancer cell growth inhibition, NCI-H226; format: cell-based, human; details: NCI-H226, Lung Cancer, 72 h treatment
Procedure: as §1, §2, §3, §4

SW620 = assay: Cancer cell growth inhibition, SW620; format: cell-based, human; details: SW620, Colorectal Cancer, 72 h treatment
Procedure: as §1, §2, §3, §4

Human HDAC9 = Human HDAC9 (Homo sapiens (Human), UniProt Q9UKV0); assay: HDAC9 fluorogenic peptide deacetylation assay; format: biochemical; details: human HDAC9, 50 μM substrate, 30° C., 2 h; read-out: IC50 (nM) of enzyme activity HDAC9
Human HDAC10 = Human HDAC10 (Homo sapiens (Human), UniProt Q969S8); assay: HDAC10 fluorogenic peptide deacetylation assay; format: biochemical; details: human HDAC10, 50 μM substrate, 30° C., 2 h; read-out: IC50 (nM) of enzyme activity HDAC10
Human HDAC10, sequence (Q969S8 1-631): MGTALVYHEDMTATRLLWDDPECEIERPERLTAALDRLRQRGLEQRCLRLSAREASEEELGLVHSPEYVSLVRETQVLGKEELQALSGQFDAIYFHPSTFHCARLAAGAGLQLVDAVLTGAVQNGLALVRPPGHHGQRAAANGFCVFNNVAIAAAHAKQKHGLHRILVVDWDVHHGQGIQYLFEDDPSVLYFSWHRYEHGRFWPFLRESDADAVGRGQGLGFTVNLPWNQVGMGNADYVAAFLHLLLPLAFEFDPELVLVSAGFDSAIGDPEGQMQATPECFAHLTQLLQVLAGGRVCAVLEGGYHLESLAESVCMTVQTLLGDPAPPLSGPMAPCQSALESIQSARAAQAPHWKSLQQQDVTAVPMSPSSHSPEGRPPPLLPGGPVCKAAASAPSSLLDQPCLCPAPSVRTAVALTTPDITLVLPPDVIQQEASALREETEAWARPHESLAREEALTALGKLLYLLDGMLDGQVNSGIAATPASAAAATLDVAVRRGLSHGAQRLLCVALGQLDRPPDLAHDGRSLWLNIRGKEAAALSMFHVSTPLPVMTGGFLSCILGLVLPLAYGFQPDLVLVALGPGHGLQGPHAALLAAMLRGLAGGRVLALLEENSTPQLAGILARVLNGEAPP

Human HDAC2 = Human HDAC2 (Homo sapiens (Human), UniProt Q92769); assay: HDAC2 fluorogenic peptide deacetylation assay; format: biochemical; details: human HDAC2, 50 μM substrate, 30° C., 2 h; read-out: IC50 (nM) of enzyme activity HDAC2
Human HDAC2, sequence (Q92769 whole entry): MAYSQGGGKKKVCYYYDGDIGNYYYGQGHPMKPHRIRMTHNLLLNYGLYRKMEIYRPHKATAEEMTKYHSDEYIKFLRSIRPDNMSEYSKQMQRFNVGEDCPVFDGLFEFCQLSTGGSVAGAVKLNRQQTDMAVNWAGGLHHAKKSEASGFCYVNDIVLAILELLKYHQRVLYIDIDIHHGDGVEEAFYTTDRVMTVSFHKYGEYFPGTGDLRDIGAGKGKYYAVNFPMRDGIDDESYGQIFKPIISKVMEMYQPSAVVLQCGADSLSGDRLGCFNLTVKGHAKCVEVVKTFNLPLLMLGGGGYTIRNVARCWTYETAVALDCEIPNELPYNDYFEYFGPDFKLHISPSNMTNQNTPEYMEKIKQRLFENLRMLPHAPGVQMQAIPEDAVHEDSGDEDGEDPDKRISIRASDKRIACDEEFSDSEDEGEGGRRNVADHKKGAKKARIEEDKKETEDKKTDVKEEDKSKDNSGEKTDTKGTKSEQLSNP

Human HDAC7 = Human HDAC7 (Homo sapiens (Human), UniProt Q8WUI4); assay: HDAC7 fluorogenic peptide deacetylation assay; format: biochemical; details: human HDAC7, 50 μM substrate, 30° C., 2 h; read-out: IC50 (nM) of enzyme activity HDAC7
Human HDAC3/NcoR2 = Human HDAC3/NcoR2 (Homo sapiens (Human), UniProt O15379); assay: HDAC3 fluorogenic peptide deacetylation assay; format: biochemical; details: human HDAC3/NcoR2, 50 μM substrate, 30° C., 2 h; read-out: IC50 (nM) of enzyme activity HDAC3
Human HDAC3/NcoR2, sequence (O15379 whole entry): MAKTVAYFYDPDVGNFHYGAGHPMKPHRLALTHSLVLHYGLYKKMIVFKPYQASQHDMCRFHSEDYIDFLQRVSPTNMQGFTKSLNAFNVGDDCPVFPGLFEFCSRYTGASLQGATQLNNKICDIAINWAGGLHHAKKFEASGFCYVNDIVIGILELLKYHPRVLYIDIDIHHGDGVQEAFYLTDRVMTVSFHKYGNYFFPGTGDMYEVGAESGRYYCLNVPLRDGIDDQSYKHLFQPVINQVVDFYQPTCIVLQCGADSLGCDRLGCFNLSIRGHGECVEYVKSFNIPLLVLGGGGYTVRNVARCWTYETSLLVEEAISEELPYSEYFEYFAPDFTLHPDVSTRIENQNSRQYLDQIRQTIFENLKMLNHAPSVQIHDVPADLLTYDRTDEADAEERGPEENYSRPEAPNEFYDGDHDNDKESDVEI
Human HDAC3/NcoR2, sequence (Q9Y618 395-489 partner): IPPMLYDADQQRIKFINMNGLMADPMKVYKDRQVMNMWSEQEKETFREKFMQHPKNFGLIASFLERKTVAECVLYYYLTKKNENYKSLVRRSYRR

Human HDAC11 = Human HDAC11 (Homo sapiens (Human), UniProt Q96DB2); assay: HDAC11 fluorogenic peptide deacetylation assay; format: biochemical; details: human HDAC11, 50 μM substrate, 30° C., 2 h; read-out: IC50 (nM) of enzyme activity HDAC11
Human HDAC11, sequence (Q96DB2 whole entry): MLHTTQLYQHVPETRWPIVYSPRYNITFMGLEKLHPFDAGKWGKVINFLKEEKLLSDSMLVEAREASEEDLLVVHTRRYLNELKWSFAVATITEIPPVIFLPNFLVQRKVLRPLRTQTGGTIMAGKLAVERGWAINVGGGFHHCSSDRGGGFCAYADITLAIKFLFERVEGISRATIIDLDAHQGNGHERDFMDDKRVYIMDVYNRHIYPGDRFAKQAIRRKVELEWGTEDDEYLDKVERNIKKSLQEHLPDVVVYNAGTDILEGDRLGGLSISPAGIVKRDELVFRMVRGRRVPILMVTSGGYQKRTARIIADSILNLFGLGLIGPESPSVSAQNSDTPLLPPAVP

[1] = system: Nuclear Extract from HeLa Cells; assay: HeLa Nuclear Extract HDAC assay; format: biochemical, human; details: 50 μM substrate, 30° C., 2 h, read-out: IC50 (nM) of enzyme activity HeLa
Human HDAC4 = Human HDAC4 (Homo sapiens (Human), UniProt P56524); assay: HDAC4 fluorogenic peptide deacetylation assay; format: biochemical; details: human HDAC4, 50 μM substrate, 30° C., 2 h; read-out: IC50 (nM) of enzyme activity HDAC4
Human HDAC5 = Human HDAC5 (Homo sapiens (Human), UniProt Q9UQL6); assay: HDAC5 fluorogenic peptide deacetylation assay; format: biochemical; details: human HDAC5, 50 μM substrate, 30° C., 2 h; read-out: IC50 (nM) of enzyme activity HDAC5
Human HDAC5, sequence (Q9UQL6 other isoform, or with tags, fused parts or gaps): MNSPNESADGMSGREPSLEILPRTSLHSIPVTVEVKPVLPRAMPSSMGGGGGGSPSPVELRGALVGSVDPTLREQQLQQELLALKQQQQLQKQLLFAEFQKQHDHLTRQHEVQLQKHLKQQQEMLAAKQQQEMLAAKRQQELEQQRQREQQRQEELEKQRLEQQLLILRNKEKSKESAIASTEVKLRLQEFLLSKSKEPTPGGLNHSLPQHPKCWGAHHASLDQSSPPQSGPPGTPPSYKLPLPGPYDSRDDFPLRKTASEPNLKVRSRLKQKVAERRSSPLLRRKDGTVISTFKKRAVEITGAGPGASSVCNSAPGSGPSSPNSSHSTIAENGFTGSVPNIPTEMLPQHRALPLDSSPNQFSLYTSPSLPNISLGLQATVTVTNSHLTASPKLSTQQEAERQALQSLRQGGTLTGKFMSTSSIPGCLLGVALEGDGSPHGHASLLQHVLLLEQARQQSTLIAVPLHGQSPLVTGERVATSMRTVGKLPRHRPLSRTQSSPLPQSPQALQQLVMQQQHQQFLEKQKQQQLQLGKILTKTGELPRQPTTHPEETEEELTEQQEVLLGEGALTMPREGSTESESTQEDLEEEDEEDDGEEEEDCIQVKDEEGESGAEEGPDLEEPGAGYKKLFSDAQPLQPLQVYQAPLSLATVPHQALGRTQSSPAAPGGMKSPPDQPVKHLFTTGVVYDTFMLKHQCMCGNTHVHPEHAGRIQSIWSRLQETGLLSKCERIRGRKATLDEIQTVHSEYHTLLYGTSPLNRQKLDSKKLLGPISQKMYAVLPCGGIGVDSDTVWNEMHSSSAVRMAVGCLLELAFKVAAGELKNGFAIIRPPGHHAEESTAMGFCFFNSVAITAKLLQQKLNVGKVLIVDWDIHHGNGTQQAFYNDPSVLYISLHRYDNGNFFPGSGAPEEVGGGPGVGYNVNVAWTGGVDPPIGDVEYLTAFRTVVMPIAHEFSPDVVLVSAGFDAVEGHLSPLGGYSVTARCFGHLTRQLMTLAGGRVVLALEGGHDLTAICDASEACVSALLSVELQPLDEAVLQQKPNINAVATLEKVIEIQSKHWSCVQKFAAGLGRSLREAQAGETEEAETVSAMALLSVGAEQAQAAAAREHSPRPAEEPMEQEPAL

Human HDAC8 = Human HDAC8 (Homo sapiens (Human), UniProt Q9BY41); assay: HDAC8 fluorogenic peptide deacetylation assay; format: biochemical; details: human HDAC8, 50 μM substrate, 30° C., 2 h; read-out: IC50 (nM) of enzyme activity HDAC8
Human HDAC6 = Human HDAC6 (Homo sapiens (Human), UniProt Q9UBN7); assay: HDAC6 fluorogenic peptide deacetylation assay; format: biochemical; details: human HDAC6, 50 μM substrate, 30° C., 2 h; read-out: IC50 (nM) of enzyme activity HDAC6
Human HDAC6, sequence (Q9UBN7 whole entry): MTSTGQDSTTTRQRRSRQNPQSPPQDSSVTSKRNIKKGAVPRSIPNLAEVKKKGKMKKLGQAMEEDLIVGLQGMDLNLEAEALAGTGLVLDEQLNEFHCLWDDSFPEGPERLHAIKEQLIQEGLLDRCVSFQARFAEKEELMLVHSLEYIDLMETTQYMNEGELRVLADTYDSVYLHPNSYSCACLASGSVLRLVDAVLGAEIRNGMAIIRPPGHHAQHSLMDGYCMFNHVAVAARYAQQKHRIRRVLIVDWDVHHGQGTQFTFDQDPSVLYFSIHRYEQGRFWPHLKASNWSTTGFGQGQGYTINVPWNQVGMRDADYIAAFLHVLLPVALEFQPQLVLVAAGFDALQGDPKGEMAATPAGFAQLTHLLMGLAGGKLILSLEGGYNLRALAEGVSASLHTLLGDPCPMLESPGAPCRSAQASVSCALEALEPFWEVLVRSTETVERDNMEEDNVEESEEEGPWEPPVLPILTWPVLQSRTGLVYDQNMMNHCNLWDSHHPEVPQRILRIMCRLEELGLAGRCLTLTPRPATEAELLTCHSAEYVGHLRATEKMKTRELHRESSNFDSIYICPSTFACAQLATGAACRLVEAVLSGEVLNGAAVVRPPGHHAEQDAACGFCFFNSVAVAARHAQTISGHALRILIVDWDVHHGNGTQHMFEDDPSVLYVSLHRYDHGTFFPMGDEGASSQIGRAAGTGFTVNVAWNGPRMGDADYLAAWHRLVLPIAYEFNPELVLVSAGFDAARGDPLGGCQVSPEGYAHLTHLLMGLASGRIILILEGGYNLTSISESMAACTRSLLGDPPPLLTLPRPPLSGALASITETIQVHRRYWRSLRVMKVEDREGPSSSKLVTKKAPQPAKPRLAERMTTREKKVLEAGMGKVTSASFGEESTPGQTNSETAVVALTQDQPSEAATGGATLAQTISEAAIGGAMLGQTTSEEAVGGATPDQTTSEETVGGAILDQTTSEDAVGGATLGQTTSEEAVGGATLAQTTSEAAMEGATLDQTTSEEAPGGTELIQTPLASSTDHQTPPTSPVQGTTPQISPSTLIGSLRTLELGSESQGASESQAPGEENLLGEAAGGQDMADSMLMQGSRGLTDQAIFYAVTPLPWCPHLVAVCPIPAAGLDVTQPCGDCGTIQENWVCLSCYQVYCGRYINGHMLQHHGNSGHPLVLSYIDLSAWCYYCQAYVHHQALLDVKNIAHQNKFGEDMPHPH

Human HDAC1 = Human HDAC1 (Homo sapiens (Human), UniProt Q13547); assay: HDAC1 fluorogenic peptide deacetylation assay; format: biochemical; details: human HDAC1, 50 μM substrate, 30° C., 2 h; read-out: IC50 (nM) of enzyme activity HDAC1
Human HDAC1, sequence (Q13547 whole entry): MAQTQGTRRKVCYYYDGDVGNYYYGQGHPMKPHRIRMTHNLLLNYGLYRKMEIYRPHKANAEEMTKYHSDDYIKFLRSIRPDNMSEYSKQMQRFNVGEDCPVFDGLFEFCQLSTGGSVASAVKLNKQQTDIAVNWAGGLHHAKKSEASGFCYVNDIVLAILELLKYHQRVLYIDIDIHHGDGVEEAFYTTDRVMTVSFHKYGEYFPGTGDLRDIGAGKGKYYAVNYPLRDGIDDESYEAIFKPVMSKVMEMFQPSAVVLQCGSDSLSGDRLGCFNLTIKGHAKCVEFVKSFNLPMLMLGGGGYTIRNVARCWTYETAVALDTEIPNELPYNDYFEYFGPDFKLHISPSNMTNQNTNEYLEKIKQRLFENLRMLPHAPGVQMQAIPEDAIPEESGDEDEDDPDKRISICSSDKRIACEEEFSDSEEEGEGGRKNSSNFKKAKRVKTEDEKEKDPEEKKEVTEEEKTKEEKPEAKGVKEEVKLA

N.N.[Cl][Pt][Cl] [Cisplatin, reference compound]
IC50 (SW480): 10.8 µM
IC50 (A549): 28.4 µM
IC50 (MDA-MB-231): 99.8 µM
IC50 (K562): 13.2 µM
IC50 (MCG803): 11.4 µM
IC50 (KB): 3.97 µM
IC50 (CNE2): 11.8 µM
IC50 (LoVo): 4.65 µM
IC50 (A375): 6.55 µM
IC50 (OVCAR3): 11.7 µM
IC50 (PC-3): 11.5 µM
IC50 (Hep3B): 3.96 µM
IC50 (RPMI-8226): 1.06 µM
IC50 (SK-BR-3): 1.74 µM
IC50 (DLD-1): 18.3 µM
IC50 (Bx-PC-3): 6.12 µM
IC50 (DU145): 4.01 µM
IC50 (NCI-H460): 6.93 µM
IC50 (Calu-6): 1.61 µM
IC50 (SK-MEL-5): 2.87 µM
IC50 (PANC-1): 24.8 µM
IC50 (BGC823): 1.29 µM
IC50 (MCF-7): 7.75 µM
IC50 (U87MG): 7.61 µM
IC50 (NCI-N87): 8.24 µM
IC50 (786-O): 4.32 µM
IC50 (LNCaP): 8.92 µM
IC50 (HT-29): 14.9 µM
IC50 (SK-MES-1): 5.12 µM
IC50 (SK-OV-3): 4.42 µM
IC50 (NCI-H226): 9.5 µM
IC50 (SW620): 84.3 µM

Nc1ccccc1NC(=O)c1ccc(CNC(=O)c2[nH]c(-c3ccc(O)cc3)cc2-c2ccoc2)cc1 [Example 37, N-(4-{[(2-aminophenyl)amino)carbonyl]benzyl}-3-(3-furyl)-5-(4-hydroxyphenyl)-1H-pyrrole-2-carboxamide]
IC50 (Human HDAC9): > 5000 nM
IC50 (Human HDAC10): 8550 nM
IC50 (Human HDAC2): 1840 nM
IC50 (Human HDAC7): > 5000 nM
IC50 (Human HDAC3/NcoR2): 5830 nM
IC50 (Human HDAC11): 5660 nM
IC50 [1]: 1080 nM
IC50 (Human HDAC4): > 5000 nM
IC50 (Human HDAC5): 8640 nM
IC50 (Human HDAC8): > 5000 nM
IC50 (Human HDAC6): 2890 nM
IC50 (Human HDAC1): 332 nM
